± gives the expanded uncertainty stated by the source.
Key:
[1] = Molar enthalpy of transition or fusion; conditions: Adiabatic calorimetry
[2] = for molar entropy: 101.33 kPa, Vacuum adiabatic calorimetry

CCCCCCCCCCCCCCCCCC(=O)OCC(COC(=O)CCCCCCCCCCCCCCCCC)OC(=O)CCCCCCCCCCCCCCCCC [glycerol trioctadecanoate]
Molar enthalpy of transition or fusion ([1]; Crystal): 47.22 ± 0.43 kcal/mol
Molar enthalpy of transition or fusion ([1]; Metastable crystal): 30.9 ± 0.43 kcal/mol
molar entropy ([2]; 10 K, Crystal): 5.349 ± 0.89 J/K/mol
molar entropy ([2]; 20 K, Crystal): 32.09 ± 0.89 J/K/mol
molar entropy ([2]; 30 K, Crystal): 74.88 ± 0.89 J/K/mol
molar entropy ([2]; 40 K, Crystal): 130.16 ± 1.8 J/K/mol
molar entropy ([2]; 50 K, Crystal): 188.99 ± 2.7 J/K/mol
molar entropy ([2]; 60 K, Crystal): 251.4 ± 3.6 J/K/mol
molar entropy ([2]; 70 K, Crystal): 315.58 ± 4.5 J/K/mol
molar entropy ([2]; 80 K, Crystal): 380.66 ± 6.2 J/K/mol
molar entropy ([2]; 90 K, Crystal): 443.96 ± 7.1 J/K/mol
molar entropy ([2]; 100 K, Crystal): 504.58 ± 8 J/K/mol
molar entropy ([2]; 110 K, Crystal): 562.52 ± 8.9 J/K/mol
molar entropy ([2]; 120 K, Crystal): 618.69 ± 8.9 J/K/mol
molar entropy ([2]; 130 K, Crystal): 673.07 ± 9.8 J/K/mol
molar entropy ([2]; 140 K, Crystal): 726.56 ± 11 J/K/mol
molar entropy ([2]; 150 K, Crystal): 778.26 ± 12 J/K/mol
molar entropy ([2]; 160 K, Crystal): 829.97 ± 12 J/K/mol
molar entropy ([2]; 170 K, Crystal): 879.89 ± 13 J/K/mol
molar entropy ([2]; 180 K, Crystal): 929.81 ± 14 J/K/mol
molar entropy ([2]; 190 K, Crystal): 978.84 ± 15 J/K/mol
molar entropy ([2]; 200 K, Crystal): 1028.8 ± 15 J/K/mol
molar entropy ([2]; 210 K, Crystal): 1077.8 ± 16 J/K/mol
molar entropy ([2]; 220 K, Crystal): 1125.9 ± 17 J/K/mol
molar entropy ([2]; 230 K, Crystal): 1173.2 ± 18 J/K/mol
molar entropy ([2]; 240 K, Crystal): 1219.5 ± 19 J/K/mol
molar entropy ([2]; 250 K, Crystal): 1266.8 ± 19 J/K/mol
molar entropy ([2]; 260 K, Crystal): 1314 ± 20 J/K/mol
molar entropy ([2]; 270 K, Crystal): 1361.3 ± 21 J/K/mol
molar entropy ([2]; 280 K, Crystal): 1408.5 ± 18 J/K/mol
molar entropy ([2]; 290 K, Crystal): 1456.7 ± 22 J/K/mol
molar entropy ([2]; 298.15 K, Crystal): 1495.9 ± 22 J/K/mol
molar entropy ([2]; 300 K, Crystal): 1504.8 ± 22 J/K/mol
molar entropy ([2]; 310 K, Crystal): 1553.8 ± 23 J/K/mol
molar entropy ([2]; 320 K, Crystal): 1603.8 ± 24 J/K/mol
molar entropy ([2]; 330 K, Crystal): 1655.5 ± 25 J/K/mol
Triple point temperature ([2]; Crystal, Adiabatic calorimetry): 345.94 ± 0.04 K
Normal melting temperature ([2]; Metastable crystal, Adiabatic calorimetry): 54.2 ± 0.1 °C

Source: the NIST ThermoML archive (doi:10.1021/je050092d)
